Reference: ChEMBL document CHEMBL1146430, “Alternatamides A-D: new bromotryptamine peptide antibiotics from the Atlantic marine bryozoan Amathia alternata” (1997)
Converted amounts (≈) assume the structure as drawn.

Tests used:
Format in all cases: functional
[1] = tested on: Streptococcus pyogenes; assay: Antibacterial activity against Streptococcus pyogenes
[2] = tested on: Staphylococcus aureus; assay: Antibacterial activity against Staphylococcus aureus
[3] = tested on: Enterococcus faecium; assay: Antibacterial activity against Enterococcus faecium
[4] = tested on: Staphylococcus epidermidis; assay: Antibacterial activity against Staphylococcus epidermidis
[5] = tested on: Bacillus subtilis; assay: Antibacterial activity against Bacillus subtilis
[6] = tested on: Staphylococcus haemolyticus; assay: Antibacterial activity against Staphylococcus haemolyticus
[7] = tested on: Enterococcus faecalis; assay: Antibacterial activity against Enterococcus faecalis

MIC [1] [µg/mL]	MIC [2] [µg/mL]	MIC [3] [µg/mL]	MIC [4] [µg/mL]	MIC [5] [µg/mL]	MIC [7] [µg/mL]	SMILES	MIC [6] [µg/mL]
4 (≈ 7.43 µM)	4 (≈ 7.43 µM)	4 (≈ 7.43 µM)	4 (≈ 7.43 µM)	4 (≈ 7.43 µM)	4 (≈ 7.43 µM)	CN[C@@H](CC(C)C)C(=O)NCCc1c(Br)n(C)c2cc(Br)c(Br)cc12 [ALTEMATAMIDE A]	4 (≈ 7.43 µM)
4 (≈ 7.63 µM)	4 (≈ 7.63 µM)	4 (≈ 7.63 µM)	4 (≈ 7.63 µM)	4 (≈ 7.63 µM)	4 (≈ 7.63 µM)	CN[C@@H](CC(C)C)C(=O)NCCc1c(Br)[nH]c2cc(Br)c(Br)cc12 [ALTEMATAMIDE B]	4 (≈ 7.63 µM)
4 (≈ 8.98 µM)	4 (≈ 8.98 µM)	4 (≈ 8.98 µM)	4 (≈ 8.98 µM)	4 (≈ 8.98 µM)	4 (≈ 8.98 µM)	CN[C@@H](CC(C)C)C(=O)NCCc1c(Br)[nH]c2ccc(Br)cc12 [ALTEMATAMIDE C]	4 (≈ 8.98 µM)
